We go through 2 compounds from US7659278B2, “Use of low molecular weight compounds for preparing a medicament useful in treating mutant p53 mediated diseases” (Aprea AB, priority 2002, dated 2010).

The target in data set [1] is T1, GST-His-175 mutant p53 protein (Homo sapiens, UniProt P04637, R175H).
T1 construct: made in house
The data set can be described thus: Band shift assay, GST-His-175 mutant p53. The class given is biochemical. The procedure:
(§1) PAb421 antibody was added to all reaction mixtures. […] Monoclonal antibody PAb421 was added to the reaction mixtures in lanes 2-8; PAb1801 was added to the reaction mixtures in lanes 9-15.
(§2) The GST-p53 proteins were prepared as described (Selivanova et al., 1997). Band shift assays were performed in binding buffer containing 100 mM HEPES pH 7.5, 50 mM KCl, 1 mg/ml BSA, 0.1% Triton X-100, 2 mM MgC12 and 1 mM DTT essentially as in (Selivanova et al., 1996).

Data set [2] deals with MDM2 and p21 in HCT 116 colon carcinoma cells (wild type p53). The data set can be described thus: Western blot of MDM2 and p21, HCT 116. The class given is cell-based, human.
The target in data set [3] is T2, endogenous mutant p53 proteins (Homo sapiens, UniProt P04637, C176F).
T2 construct: cellular extracts of human tumor cell lines carrying different p53 mutants as a source for endogenous p53 protein; endogenous in cells; host or cells: human tumour cell lines (e.g. Burkitt lymphoma BL-60; KRC/Y renal carcinoma)
Format: biochemical. The note with it: KRC/Y cell extract. As to the method:
as §1, §2

Data set [4] has as its target T3, endogenous mutant p53 proteins (Homo sapiens, UniProt P04637, R282W).
T3 construct: cellular extracts of human tumor cell lines carrying different p53 mutants as a source for endogenous p53 protein; endogenous in cells; host or cells: human tumour cell lines (e.g. Burkitt lymphoma BL-60; KRC/Y renal carcinoma)
The class given is biochemical. The note with it: cell extracts from Burkitt lymphoma BL-60 cells. The procedure: as §1, §2

The target of data set [5] is T4, GST-wild type p53 protein (Homo sapiens, UniProt P04637).
T4 construct: made in house
The data set can be described thus: Band shift assay, heat-inactivated GST-wild type p53. The class given is biochemical. The note with it: protein inactivated at 37° C. for 30 min. As to the method:
Lane 3, inactivation of DNA binding of wtp53 by heating.
as §2
Therefore, the restoration of the DNA binding of this mutant was regarded as an exceptionally difficult task.

In data set [6] the test system is Saos-2-His-273 cells. As to the kind of experiment: Colony formation assay, Saos-2-His-273. The class given is cell-based, human. The source says:
(§3) Colonies were stained with Giemsa and counted 14 days after seeding.
(§4) The cells were Giemsa stained and scored for the appearance of colonies after 14 days.

Data set [7] relates to KRC/Y renal carcinoma cells (Phe-176 mutant p53). As to the kind of experiment: Apoptosis induction by FACS, KRC/Y cells. The class given is cell-based, human. The note with it: MIRA-1 50 μM, PRIMA-1 75 μM. As to the method: The percentage of apoptotic cells was detected by FACS analysis as it was described in FIG. 3A.
(§5) Cells were placed on 12-well plate at a density of 30000/cm^2 and treated with compounds. After 48 h incubation cells were harvested by trypsinization, fixed with 70% ethanol, treated with RNase A (0.25 mg/ml) and stained with propidium iodide (0.02 mg/ml). Samples were analyzed on a Becton Dickinson FACScan. Data were analyzed by the CellQuest software, version 3.2.1.
Thus, it appears that the defect caused by substitution of the Cys residue at position 176 is irreversible. The substitution of this Cys residue abolishes the binding of a Zn atom which holds together the DNA-binding loops of the p53 core domain. Therefore, the unfolding of this mutant p53 protein is probably too extensive to be restored.

The test system of data set [8] is Saos-2-His-273 cells. As to the kind of experiment: Apoptosis induction by FACS (sub-G1, propidium iodide), Saos-2-His-273. The note with it: for time to apoptosis induction after treatment: data not shown; for p53 dependence of apoptosis induction: presence or absence of doxycyclin. Format: cell-based, human. As to the method:
Induction of apoptosis was determined by FACS analysis of ethanol fixed cells stained with propidium iodide (PI) as percentage of a sub-G1 population. […] The percentage of dead cells in non-treated cultures and in controls treated with caspase inhibitors only was subtracted. […] Hoechst staining was used to stain cell nuclei.
as §5
Induction of cell death was determined by FACS analysis of ethanol-fixed cells stained with propidium iodide (PI) as percentage of sub-G1 population.
(In general: In flow cytometry, cells or beads pass a laser one at a time.)

For data set [9], the system named is p53-responsive EGFP reporter in SKOV-His-175 cells. As to the kind of experiment: p53-responsive EGFP reporter in SKOV-His-175 cells. Format: cell-based, human. The procedure: FIG. 9B, mutant p53-dependent activation of the wild-type p53-responsive EGFP reporter in PRIMA-1-treated SKOV-His-175 cells. […] FIG. 9C, MIRA-1 induced wild-type p53-responsive EGFP reporter in SKOV-His-175 cells.
The p53-EGFP plasmid contains 13 synthetic p53 consensus DNA binding sites in front of the EGFP coding sequence. Transient transfections experiments were performed with Lipofectamine 2000 according to the manufacturer's recommendations (Invitrogemm Life Technologies, Groningen, The Netherlands).
We also transiently transfected SKOV-His-175 cells with a p53-responsive EGFP reporter.

Data set [10] deals with Saos-2 cells lacking p53. As to the kind of experiment: Colony formation assay, Saos-2 lacking p53. The class given is cell-based, human. The note with it: 5 μM, colonies counted after 14 days.
Description: as §3, §4

The subject of data set [11] is Saos-2-His-273 human tumour xenografts. As to the kind of experiment: Anti-tumour activity, Saos-2-His-273 xenograft in SCID mice. The class given is in vivo. The note with it: after 59 days. As to the method: SCID mice were injected with Saos-2-His-273 cells. […] Tumour volumes were measured once in three days for two months.
(§6) All animal studies were approved by the local animal ethical committee and animal care was in accordance with institutional guidelines. For toxicity assessment, 12 SCID mice (average weight 25 g) were divided in 4 groups. […] Control animals were injected with PBS. We measured weights of the mice for 1 month after the last injection. […] After 3 days the mice were divided into 4 groups. […] Injections were performed twice daily for 3 days. Tumour volume was measured during 2 months.
(§7) In the untreated control group, the average tumour volume after 59 days was 555.7±284 mm3 (means±SE, n=3).

Data set [12] in a line: Toxicity assessment in SCID mice. Format: in vivo. As to the method:
as §6, §7

The subject of data set [13] is p53-responsive lacZ reporter in A431 cells (endogenous His-273 mutant p53). As to the kind of experiment: p53-responsive lacZ reporter in A431 cells. The class given is cell-based, human. The note with it: 50 μM for 20 hours.

For the compound `CCCOCN1C(=O)C=CC1=O` [MIRA-1, 1-(propoxymethyl)-maleimide], the “restoration of specific DNA binding” value in data set [1] is listed as “able to restore the specific DNA binding of the GST-His-175 mutant p53 protein”. Moreover, in data set [2], the “MDM2 and p21 protein levels” value is reported as “did not cause any significant changes”. The “reactivation of Phe-176 mutant DNA binding” value in [3] is listed as “not reactivated”. Also, the “restoration of DNA binding of Trp-282 mutant p53” value in data set [4] is reported as “able to restore the sequence-specific DNA binding of the endogenous Trp-282 mutant p53”. Also, the “restoration of specific DNA binding after heat inactivation” value in data set [5] is reported as “able to restore the specific DNA binding of the GST-wild type p53 protein”. In addition, the “number of colonies, of untreated control” value in data set [6] (5 μM, colonies counted after 14 days) amounted to 15%. Also, the induction of apoptosis result in [7] is recorded as “much less prominent as compared to Saos-2-His-273 cells”. In [8], the “time to apoptosis induction after treatment” value was 6 to 12 h and the “p53 dependence of apoptosis induction” value is reported as “occurred only in the presence of p53 expression”. Moreover, the EGFP reporter expression result in [9] (5 μM for 24 hours) was “induction of EGFP was also observed”. Further, the “inhibition of colony formation” value in [10] is on record as 48%.

With `O=C1C2CCN(CC2)C1(CO)CO` [PRIMA-1, 2,2-bis(hydroxymethyl)-1-azabicyclo[2.2.2]octan-3-one], in [2], the “MDM2 and p21 protein levels” value is listed as “did not cause any significant changes”. Moreover, in data set [5], the “restoration of specific DNA binding after heat inactivation” value was “able to restore the specific DNA binding of the GST-wild type p53 protein”. In addition, the average tumour volume in [11] (20 mg/kg i.v. twice a day for three days) was 53±48.5 mm3; in data set [11] (intratumour 20 mg/kg twice a day for three days) it was 5.3±2.7 mm3; in [11] (intravenous 100 mg/kg twice a day for three days) it was 11.7±8 mm3. Further, the “doses inhibitory in a mutant p53-dependent manner” value in data set [6] (colony formation, 14 days) is 50 to 100 µM. The induction of apoptosis result in data set [7] is given as “much less prominent as compared to Saos-2-His-273 cells”. Also, in [8], the “time to apoptosis induction after treatment” value turned out to be 48 h. For the same compound, the “p53 dependence of apoptosis induction” value in data set [8] is “occurred only in the presence of p53 expression”. Also, the “average weight of mice” value in data set [12] (100 mg/kg i.v. daily for 5 days, after one month of observation) was 20 ± 0.2 g. Further, in data set [12] (intravenous injections, compared with untreated control), the “changes in behavior or weight” value is recorded as “did not cause any obvious changes in behavior or weight”. For the same compound, the EGFP reporter expression entry in data set [9] (cells expressing mutant p53, 24 hours) is “strong induction of EGFP expression”; in data set [9] (presence of doxycycline (p53 off)), “did not express detectable levels of EGFP”. For the same compound, the lacZ reporter induction entry in [13] is “appearance of lacZ-positive cells”.
